Results published in ChEMBL document CHEMBL1150715, “Puupehenone, a cytotoxic metabolite from a deep water marine sponge, Stronglyophora hartmani” (J Nat Prod, 1987).
Converted amounts (≈) assume the structure as drawn.

How the values were obtained:
[1] = tested on: P388; assay: In vivo cytotoxicity against mouse P388 cells at 25 mg/kg administered daily for 9 days relative to control; format: functional
[2] = tested on: P388; assay: Cytotoxicity against mouse P388 cells; format: functional, cell-based
[3] = tested on: Candida albicans; assay: Antifungal activity against Candida albicans; format: functional
[4] = tested on: A549; assay: Cytotoxicity against human A549 cells; format: functional, cell-based
[5] = tested on: MCF7; assay: Cytotoxicity against human MCF7 cells; format: functional, cell-based
[6] = tested on: HCT-8; assay: Cytotoxicity against human HCT8 cells; format: functional, cell-based

- MIC [3]: 3 µg/mL (≈ 9.13 µM)
Structure (SMILES): CC1(C)CCC[C@]2(C)[C@H]3C=C4C=C(O)C(=O)C=C4O[C@@]3(C)CC[C@@H]12 [PUUPEHENONE]
- T/C [1]: 119%
- IC50 [2]: 1 µg/mL (≈ 3.04 µM)
- IC50 [4]: 0.1 µg/mL (≈ 0.304 µM)
- IC50 [5]: 0.1 µg/mL (≈ 0.304 µM)
- IC50 [6]: 1 µg/mL (≈ 3.04 µM)
